Measured values: patent US20250152387A1, “COBALT-CHROMIUM ALLOY STENT AND DRUG ELUTING STENT” (AmsinoMed Medical Co., Ltd, priority 2022, published 2025)

Columns and labels:
[1] = system: vascular endothelial cells (HUVECs); experiment: CCK-8 cell viability assay on vascular endothelial cells; format: cell-based; details: 24 h and 48 h
Experimental: The range of drug concentrations at which ATO and TAC were friendly to vascular endothelial cell viability was determined at the cellular level.
The changes in the cell viability of vascular endothelial cells (HUVECs) under the action of ATO, TAC and rapamycin (RAP) at different concentrations for 24 h and 48 h were studied by CCK-8 cell viability assay, respectively.

[2] = system: vascular smooth muscle cells (HASMCs); experiment: CCK-8 cell viability assay on vascular smooth muscle cells; format: cell-based; details: different concentrations, 24 h and 48 h
Experimental: The range of drug concentrations at which ATO and TAC were friendly to vascular smooth muscle cell viability was determined at the cellular level.
The changes in the cell viability of vascular smooth muscle cells (HASMCs) under the action of ATO, TAC and rapamycin (RAP) at different concentrations for 24 h and 48 h were studied by CCK-8 cell viability assay, respectively.

[3] = system: IL-6, IL-10 and TNF-α gene expression in HUVECs; experiment: PCR of inflammatory factor gene expression in LPS-induced HUVECs; format: cell-based; details: 10 nM; HUVECs induced with LPS 1 μg/ml for 6 h
Experimental: The range of effective concentrations at which TAC inhibited the inflammatory response of vascular endothelial cells was verified at the cellular level.
After induction of HUVECs with LPS at a concentration of 1 μg/ml for 6 h, the inhibitory effects of TAC at different concentrations on the inflammatory response of HUVECs were detected by PCR.

[4] = Drug release from coated stents soaked in PBS solution in a shaker; format: physicochemical; details: at 1 d; release curve obtained by adjustment
From the text: The process of testing the release properties of tacrolimus of the present invention comprises: soaking drug stents in a PBS solution, placing the stents in a shaker (shaking speed of 80 r/min), and taking out the stents at the corresponding time points (1 d, 7 d, 14 d, 21 d, and 28 d) (at least 3 stents for each time point), and testing the concentration of tacrolimus. The content of tacrolimus can be tested using the detection method in “Determination of Tacrolimus Tablets by HPLC” (Lv, Yongchao, Song, Yucai; Journal of Pharmaceutical Research 2013 Vol. 32, No. 4, page 1).
For the drug release properties of the present invention, the release process comprises: soaking drug stents in a PBS solution, placing the stents in a shaker (shaking speed of 100 r/min), and taking out 5 ml of the solution at the corresponding time points (1 d, 7 d, 14 d, 21 d, and 28 d) (at least 3 stents for each time point) for testing. The release of the drug arsenic trioxide is detected using the method disclosed in “Preparation and the Release Characteristic in vitro of Arsenic Trioxide Albumin Nanospheres” (Zhou, Jie, Zeng, Fuqing, Gao, Xiang, Xie, Shusheng, Wei, Shuli, Chinese Journal of New Drugs, pages 54-57).

In the case of `CO[C@H]1C[C@@H]2CC[C@@H](C)[C@@](O)(O2)C(=O)C(=O)N2CCCC[C@H]2C(=O)O[C@H]([C@H](C)C[C@@H]2CC[C@@H](O)[C@H](OC)C2)CC(=O)[C@H](C)/C=C(\C)[C@@H](O)[C@@H](OC)C(=O)[C@H](C)C[C@H](C)/C=C/C=C/C=C/1C` [RAP, rapamycin], the “concentration with no significant effect on cell viability” value [1] is reported as ≤ 100 nM.

For `C=CC[C@@H]1/C=C(\C)C[C@H](C)C[C@H](OC)[C@H]2O[C@@](O)(C(=O)C(=O)N3CCCC[C@H]3C(=O)O[C@H](/C(C)=C/[C@@H]3CC[C@@H](O)[C@H](OC)C3)[C@H](C)[C@@H](O)CC1=O)[C@H](C)C[C@@H]2OC` [TAC, tacrolimus], the “concentration with no significant effect on cell viability” value [1] was ≤ 50 nM, the “effect on the viability of vascular smooth muscle cells” value [2] was “no significant inhibitory effect” and the “gene expression levels of cellular inflammatory factors IL-6, IL-10 and TNF-α” value [3] was “effectively reduce”. For the same molecule, the tacrolimus released [4] was ≥ 40%.
